Assay results as given in the NIST ThermoML archive (doi:10.1016/j.jct.2008.07.024).
Several values for one entry are separate records, joined by “and”; a condition that tells them apart may be missing. Equal entries are not always repeated. ± gives the expanded uncertainty stated by the source.

Settings: Liquid, Closed cell (Static) method

SMILES | vapor or sublimation pressure (303.15 K) [kPa] | vapor or sublimation pressure (313.15 K) | vapor or sublimation pressure (323.15 K)
CCCOCCO [2-propoxyethanol] | 0.45 ± 0.02 | 0.87 ± 0.02 kPa and 0.89 ± 0.02 kPa | 1.59 ± 0.02 kPa and 1.61 ± 0.02 kPa
CCCCCCC [heptane] | 7.92 ± 0.03 | 12.24 ± 0.03 kPa | 18.91 ± 0.04 kPa
CCCCCC [hexane] | 25.16 ± 0.05 | 37.42 ± 0.07 kPa | 54.11 ± 0.1 kPa
